Data reported in ChEMBL document CHEMBL1201862, “PubChem BioAssay data set” (2004).
Active and inactive are the calls of the source. Cut-off read from the data, not from the text of the source: actives have a measured IC50 and inactives only a lower limit.

Target: Envelope glycoprotein gp160 (Human immunodeficiency virus 1, UniProt Q6QLK5)
Assay: cell-free HIV fusion peptide-binding blockers – biochemical, uHTS, fluorescence dequenching, […] (AID 1986)

Sequence of Envelope glycoprotein gp160 (Q6QLK5 whole entry, the tested form may be a part): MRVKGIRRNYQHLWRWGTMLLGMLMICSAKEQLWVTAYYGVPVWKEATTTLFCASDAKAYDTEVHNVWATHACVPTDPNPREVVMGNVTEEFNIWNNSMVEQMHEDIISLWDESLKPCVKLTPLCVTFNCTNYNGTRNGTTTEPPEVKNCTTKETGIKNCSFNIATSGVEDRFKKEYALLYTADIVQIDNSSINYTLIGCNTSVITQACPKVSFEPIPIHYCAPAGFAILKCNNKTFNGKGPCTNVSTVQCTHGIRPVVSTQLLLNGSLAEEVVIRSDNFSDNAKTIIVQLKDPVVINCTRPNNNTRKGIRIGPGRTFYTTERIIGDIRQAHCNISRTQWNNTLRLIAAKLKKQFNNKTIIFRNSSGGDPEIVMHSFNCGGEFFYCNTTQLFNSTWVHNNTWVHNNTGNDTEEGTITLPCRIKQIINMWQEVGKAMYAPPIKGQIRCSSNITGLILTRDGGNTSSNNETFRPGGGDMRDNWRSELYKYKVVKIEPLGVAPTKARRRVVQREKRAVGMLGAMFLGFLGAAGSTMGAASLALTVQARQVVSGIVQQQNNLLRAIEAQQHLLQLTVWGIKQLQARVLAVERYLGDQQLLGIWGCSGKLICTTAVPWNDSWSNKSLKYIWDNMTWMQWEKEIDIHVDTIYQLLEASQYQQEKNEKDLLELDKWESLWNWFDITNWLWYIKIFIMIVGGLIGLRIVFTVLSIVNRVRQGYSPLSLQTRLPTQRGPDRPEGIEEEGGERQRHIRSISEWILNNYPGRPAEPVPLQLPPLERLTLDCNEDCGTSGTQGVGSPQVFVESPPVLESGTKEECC

**Q.** For Cc1c(CCC(=O)O)c(=O)oc2c(C)c3occ(-c4ccc(Br)cc4)c3cc12, which IC50 is on record?
**A.** 21.3 µM (active)
